Marks after values point to notes of the source that are not given here.
Test system: C. albicans
Assay: in vivo antifungal activity, candidemia in mice infected with C. albicans
Parameters: species or system Albino male mice; Total Protein Mean ± SE: unit not given here
Conditions: for daily body weight / % change in daily body weight / Food consumption / Mortality / Water consumption: oral 12 mg/kg then 6 mg/ml
Experimental: To confirm that the water soluble form of the compound 4 has a biological activity as a novel antimicrobial agent, effectiveness of the compound 4 as a drug to treat candidemia in mice was investigated. The experiment was performed in Experimental Animal Care Center (EACC), College of Pharmacy, King Saud University, Riyadh. Fifty Albino male mice, weighing nearly 30±2 gram were used. The mice were arranged in five groups, each including ten mice caged together, given water, and feed ad libitum. Negative control and control group were infected intravenously with 0.2 ml of C. albicans suspension (10^6 CFU/mouse) and 0.2 ml of sterile normal saline (0.89% Nacl) respectively. The group treated with standard drug (fluconazole) was infected intravenously with 0.2 ml of C. albicans suspension (10^6 CFU/mouse) and treated (orally) by 12 mg/kg of fluconazole (loading dose) on the first day followed by 6 mg/ml for 2 weeks. The group treated with the investigated compound 4 was infected intravenously with C. albicans at 10^6 CFU/mouse (0.2 ml) and treated (orally) by 12 mg/kg of the compound 4 (loading dose) on the first day followed by 6 mg/ml for 2 weeks. To study the biological effects of compound 4, a fifth group was designed. In this group the mice were treated intravenously (I. V) with 12 mg/kg of the compound 4 on the first day followed by 6 mg/ml for 2 weeks. All doses of the standard drug and compound 4 were given twice daily.
The effectiveness of the previous treatments on some biological concepts were evaluated. The biological parameters included daily body weight (gm), mortality (%), food consumption (g/day/mouse), water consumption (ml/day/mouse), serum glutamic oxaloacetic transaminase [SGOT(AST) (U/L)], serum glutamic-pyruvic transaminase [SGPT(ALT)(U/L)], alkaline phosphatase (U/L), gamma-glutamyl transferase (GGT) (U/L), bilirubin (mg/dl)], cholesterol (mg/dl), triglycerides (mg/dl), high-density lipoprotein (HDL) (mg/dl), very-low-density lipoprotein (VLDL) (mg/dl), low-density lipoprotein (LDL) (mg/dl), lactate dehydrogenase (LDH) (U/L), glucose (mg/dl), total protein (mg/dl), malondialdehyde (MDA) (nmol/g), nonprotein sulfyhydryl (NP-SH) (nmol/g). Addition hematologic constituents including white blood cells (WBC) (cell/mm^3), red blood cells (RBC) (10^6/mm^3), hemoglobin (HGB) (g/dL), HCT, Platelets (PLT) (10^3/mm^3), mean corpuscular volume (MCV) (fL), mean corpuscular hemoglobin (MCH) (pg), mean corpuscular hemoglobin concentration (MCHC) (g/dL), neutrophils (%), lymphocytes (%), eosinophils (%) and monocytes (%)] were evaluated (Classics Lowry et al. 1951; Utley et al. 1967; Sedlak et al. 1968). SGOT (AST), SGPT (ALT), ALP, GGT, bilirubin LDH and total protein were estimated using Reflotron Plus Analyzer and Roche kits (Roche Diagnostics GmbH, Mannheim Germany) and United diagnostic kits assay. Hematological tests were performed by Mindray BC-2800VET auto Hematology Analyzer.

[1] = C. albicans-infected mice, day 1
[2] = C. albicans-infected mice, day 2
[3] = C. albicans-infected mice, day 3
[4] = C. albicans-infected mice, day 4
[5] = C. albicans-infected mice, day 5
[6] = C. albicans-infected mice, day 6
[7] = C. albicans-infected mice, day 7
[8] = C. albicans-infected mice, day 8
[9] = C. albicans-infected mice, day 9
[10] = C. albicans-infected mice, day 10
[11] = C. albicans-infected mice, day 11
[12] = C. albicans-infected mice, day 12
[13] = C. albicans-infected mice, day 13
[14] = C. albicans-infected mice, day 14
[15] = C. albicans-infected mice, day 15
[16] = blood, C. albicans-infected mice, oral 12 mg/kg then 6 mg/ml for 2 weeks
[17] = liver tissue, C. albicans-infected mice, oral 12 mg/kg then 6 mg/ml for 2 weeks
[18] = serum, C. albicans-infected mice, oral 12 mg/kg then 6 mg/ml for 2 weeks

CCOC(=O)CSC(=S)SCC(=O)OCC [Compound 4, diethyl 2,2′-(thiocarbonylbis(sulfanediyl))diacetate]
daily body weight (C. albicans-infected mice, day 0): 21.00 ± 0.36 gm | % change in daily body weight [1]: 2.38% | Food consumption [1]: 4.5 g/day/mice | Mortality [1]: 0% | Water consumption [1]: 4.5 g/day/mice | daily body weight [1]: 21.50 ± 0.26 gm | % change in daily body weight [2]: 4.76% | Food consumption [2]: 4.6 g/day/mice | Mortality [2]: 0% | Water consumption [2]: 4.5 g/day/mice | daily body weight [2]: 22.00 ± 0.25 gm | % change in daily body weight [3]: 6.19% | Food consumption [3]: 4.7 g/day/mice | Mortality [3]: 0% | Water consumption [3]: 4.7 g/day/mice | daily body weight [3]: 22.3 ± 0.21 gm | % change in daily body weight [4]: 9.04% | Food consumption [4]: 4.9 g/day/mice | Mortality [4]: 0% | Water consumption [4]: 4.9 g/day/mice | daily body weight [4]: 22.90 ± 0.27 gm | % change in daily body weight [5]: 12.16% | Food consumption [5]: 4.00 g/day/mice | Mortality [5]: 10% | Water consumption [5]: 4.2 g/day/mice | daily body weight [5]: 23.55 ± 0.37 gm | % change in daily body weight [6]: 15.34% | Food consumption [6]: 4.2 g/day/mice | Mortality [6]: 10% | Water consumption [6]: 4.6 g/day/mice | daily body weight [6]: 24.22 ± 0.32 gm | % change in daily body weight [7]: 17.46% | Food consumption [7]: 4.2 g/day/mice | Mortality [7]: 10% | Water consumption [7]: 5.7 g/day/mice | daily body weight [7]: 24.66 ± 0.23 gm | % change in daily body weight [8]: 18.45% | Food consumption [8]: 4.3 g/day/mice | Mortality [8]: 20% | Water consumption [8]: 4.6 g/day/mice | daily body weight [8]: 24.87 ± 0.29 gm | % change in daily body weight [9]: 20.23% | Food consumption [9]: 4.5 g/day/mice | Mortality [9]: 20% | Water consumption [9]: 4.6 g/day/mice | daily body weight [9]: 25.25 ± 0.25 gm | % change in daily body weight [10]: 20.83% | Food consumption [10]: 4.5 g/day/mice | Mortality [10]: 20% | Water consumption [10]: 4.8 g/day/mice | daily body weight [10]: 25.37 ± 0.26 gm | % change in daily body weight [11]: 24.48% | Food consumption [11]: 4.7 g/day/mice | Mortality [11]: 30% | Water consumption [11]: 5.1 g/day/mice | daily body weight [11]: 26.14 ± 0.26 gm | % change in daily body weight [12]: 25.17% | Food consumption [12]: 5.0 g/day/mice | Mortality [12]: 30% | Water consumption [12]: 5.4 g/day/mice | daily body weight [12]: 26.28 ± 0.28 gm | % change in daily body weight [13]: 29.93% | Food consumption [13]: 5.14 g/day/mice | Mortality [13]: 30% | Water consumption [13]: 5.5 g/day/mice | daily body weight [13]: 27.28 ± 0.28 gm | % change in daily body weight [14]: 34.92% | Food consumption [14]: 5.3 g/day/mice | Mortality [14]: 30% | Water consumption [14]: 5.5 g/day/mice | daily body weight [14]: 28.33 ± 0.49 gm | % change in daily body weight [15]: 36.50% | Food consumption [15]: 5.5 g/day/mice | Mortality [15]: 30% | Water consumption [15]: 5.8 g/day/mice | daily body weight [15]: 28.66 ± 0.33 gm | Eosinophils Mean ± SE [16]: 1.30 ± 0.02% | HCT Mean ± SE [16]: 31.3 ± 0.42 | HGB Mean ± SE [16]: 9.8 ± 0.14 g/dL | Lymphocytes Mean ± SE [16]: 7.10 ± 0.07% | MCH Mean ± SE [16]: 26.3 ± 0.5 pg | MCHC Mean ± SE [16]: 23.4 ± 1.0 g/dL | MCV Mean ± SE [16]: 53.7 ± 2.0 fL | Monocytes Mean ± SE [16]: 0.88 ± 0.07^b % | Neutrophils Mean ± SE [16]: 24.1 ± 0.2% | PLT Mean ± SE [16]: 522.3 ± 10.1 10^3/mm^3 | RBC Mean ± SE [16]: 6.16 ± 0.1 10^6/mm^3 | WBC Mean ± SE [16]: 7540.8 ± 87.3 Cell/mm^3 | effect on mortality caused by C. albicans, in words (dose of 800 mg as the loading dose, followed by 400 mg/d for 2 week): reduced the mortality | MDA [17]: 4.57 ± 0.25***^b nmol/g | Total Protein [17]: 77.84 ± 2.37**^b g/l | Alkaline phosphatase Mean ± SE [18]: 354.66 ± 5.57 U/L | Bilirubin Mean ± SE [18]: 1.15 ± 0.03 mg/dL | Cholesterol Mean ± SE [18]: 159.8 ± 3.4 mg/dL | GGT Mean ± SE [18]: 7.18 ± 0.20 U/L | Glucose level Mean ± SE [18]: 166.83 ± 4.32**^b mg/dl | HDL Mean ± SE [18]: 26.9 ± 1.1 mg/dL | LDH Mean ± SE [18]: 220.98 ± 3.96**^b U/L | LDL Mean ± SE [18]: 105.9 ± 4.6 mg/dL | SGOT(AST) Mean ± SE [18]: 169.33 ± 2.69 U/L | SGPT(ALT) Mean ± SE [18]: 83.50 ± 2.35 U/L | Total Protein Mean ± SE [18]: 4.91 ± 0.09 | Triglycerides Mean ± SE [18]: 134.8 ± 3.8 mg/dL | VLDL Mean ± SE [18]: 26.9 ± 0.7 mg/dL
